Experimental data taken from patent publication US6623741B1, “Methods and compositions for inhibition of membrane fusion-associated events including RSV transmission” (Trimeris, Inc., priority 2000, dated 2003).
Values joined by “and” are separate entries in the source; they are usually repeats but may differ in a detail not shown here. Identical values can stand only once.

How the values were obtained:
[1] = target: T1, DP107-like domain of the RSV F1-protein (MF5.1 fusion protein) (Human respiratory syncytial virus A, UniProt P03420); test: biochemical; type: binding; conditions: binding affinity for the DP107-like domain of RSV F1 protein
T1 construct: made in house
Experimental: After incubation and washing, unbound Fab-d is removed from the plates and bound Fab-d is quantitated. A no-inhibitor control should also be conducted.
Such an assay takes advantage of accepted radioligand and receptor binding principles. (See, for example, Yamamura, H. I. et al., 1985, “Neurotransmitter Receptor Binding”, 2nd ed., Raven Press, NY.) As above, M41Δ78 is immobilized onto a solid support such as a microtiter well. […] Specific binding to M41Δ78 is defined as the difference of the binding of the labeled DP178 preparation in the microtiter wells (totals) and the binding in identical wells containing, in addition, excess unlabeled DP178 (nonspecifics).
Specifically, the DNA sequence corresponding amino acid residues 142-302 of the RSV F1 protein was amplified by PCR and cloned into the Xmn I site of the expression vector pMal-p2 (New England Biolab) to give MF5.1. These amino acid residues correspond to the extracellular domain of the RSV F1 protein including its DP107 region but excluding the DP178 region.
Cell fusion assays were performed with each of the peptides as described in Section 17 above.

HR1 domain of RSV-F1 [2] = target: T2, HR1 domain of RSV-F1 (Human respiratory syncytial virus A, UniProt P03420); type: binding
T2 construct: made in house
Experimental: Proteinase-K Protection Experiments:
(§1) Mixtures were treated with 5 μg/ml proteinase-K (Sigma, St. Louis, Mo.) or an equivalent volume of buffer, vortexed and then incubated for one hour at 37° C. Phenyl methyl sulfonyl fluoride (PMSF, Boehringer Mannheim, Indianapolis, Ind.) was added to achieve a 2 mM final concentration to stop proteolytic digestion. 20 μl of each sample was removed and added to 10 μl of a sample buffer (New England Biolabs, Boston, Mass.) containing 6 w/v% Sodium Dodecyl Sulfate (DDS), DTT, 187.5 mM TRIS, 30% glycerol and bromophenol blue. The mixtures were heated for five minutes at 90° C. 15 μl of the samples were run on a 10-20% Tricine polyacrylamide gel (Novex, San Diego, Calif.), stained with Coomassie brilliant blue and destained with a 10% methanol-10% acetic acid mixture (Fisher, Norcross, Ga.).

HR1 domain of RSV-F1 [3] = type: binding, respiratory syncytial virus; conditions: 5 μg/ml proteinase-K, one hour at 37° C.
Experimental: Proteinase-K Protection Experiments:
as §1

[4] = Analytical ultracentrifugation (sedimentation equilibrium); type: physicochemical
Experimental: Analytical Ultracentrifugation:
Sedimentation equilibrium experiments were performed on a Beckman Optima XL-A analytical ultracentrifuge at 4° C. Six-channel cells (12 mm optical path length) were used with an An-60 Ti rotor operated at 13,500, 16,000, 17,000, 20,000, 21,000, 24,000, 25,000, 27,500, 30,000 and 35,000 rpm. The cell radii were scanned using 0.001 cm steps with 10 averages/scan. Data were analyzed using Beckman XLA data analysis software (version 3.01 for Windows) and Beckman-Origin software (version 3.78 for Windows). […] The partial specific volumes were held constant for all models considered.
Single data files were normalized to 270 nm absorbance values using Beer's Law. The data obtained with solutions containing the DP107-like peptides were then analyzed using a single ideal species model to determine a weight-averaged molecular weight (Mw). Diagnostic plots of Mw/Mw0 vs. rpm/rpm0 and Mw vs. radial concentration were used to test for sample homogeneity as described, e.g., by McRorie & Voelker, 1993, Self-Associating Systems in the Analytical Ultracentrifuge, Beckman Instruments, Inc., Palo Alto; and Yphantis et al., 1978, in Physical Aspects of Protein Interactions: Proceedings of the Symposium on Protein Interactions, American Chemical Society Meeting, Catsimpoolas, Ed., pp. 275-303, Elsevier, Miami Beach, Fla. When systematic residuals or a Mw higher than the monomer molecular weight indicated the presence of self-association, associative models such as monomer/trimer, monomer/tetramer and monomer/dimer/tetrarner were investigated. The suitability of a particular model (i.e., the goodness of fit) was judged by the trends observed in the residuals (Johnson & Straume, 1994, in Modern Analytical Ultracentrifugation, Schuster et al., eds., pp. 37-65, Birkhauser, Boston). Using the associative model which produced random residuals when fitting individual data files, a simultaneous, global, weighted fit of multiple data files (up to nine files with different concentrations and speeds) was performed to determine the association constant and 95% confidence intervals. To convert the resulting association constant from absorbance units to concentration units, it was assumed that the absorbance of the n-mer is n times that of the monomer.
The data obtained with DP107-like/DP178-like peptide mixtures were first analyzed with a single ideal species model. When a systematic trend in residuals coupled with the Mw not equal to a precise multimer of HR1+HR2 were obtained, and alternate fitting scheme was explored. For this approach, it was assumed that the solution contained fully associated HR1-HR2 complexes and unassociated DP107-like and DP178-like peptides. The mixtures were analyzed with a two-ideal species model, choosing one species to have a molecular weight of either 28,269 Da (corresponding to three DP107-like plus three DP178-like peptides) or […] (corresponding to four DP107-like plus four DP178-like peptides).

[5] = target: T3, MBP fusion protein containing the ectodomain of the HIV-1 fusion protein gp41 (M41Δ178) (Human immunodeficiency virus type 1 group M subtype B, UniProt P03377); conditions: control for non-specific binding
T3 construct: made by cloning the DNA fragment corresponding to gp41 amino acids 540-642 into the Xmn I site of pMal-p2; made in house
T3 sequence (P03377 540-642, stated change not applied): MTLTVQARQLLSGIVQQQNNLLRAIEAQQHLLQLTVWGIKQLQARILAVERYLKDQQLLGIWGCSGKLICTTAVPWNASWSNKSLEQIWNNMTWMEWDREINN
Experimental: as §1

T1 sequence (P03420 142-302): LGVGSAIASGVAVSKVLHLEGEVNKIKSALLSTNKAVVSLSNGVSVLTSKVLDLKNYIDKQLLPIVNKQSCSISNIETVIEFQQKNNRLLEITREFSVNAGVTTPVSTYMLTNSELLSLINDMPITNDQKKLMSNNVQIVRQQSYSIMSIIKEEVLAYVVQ
T2 sequence (P03420 142-302): as above

In the case of `CC[C@H](C)[C@H](NC(=O)[C@H](Cc1ccccc1)NC(=O)[C@H](C)NC(=O)[C@H](CC(C)C)NC(=O)[C@H](CO)NC(=O)[C@H](CCC(N)=O)NC(=O)[C@H](CC(N)=O)NC(=O)[C@@H](NC(=O)[C@H](CCCCN)NC(=O)[C@H](CCC(=O)O)NC(=O)[C@H](CC(N)=O)NC(=O)[C@@H](NC(=O)[C@H](CCC(N)=O)NC(=O)[C@H](CO)NC(=O)[C@@H](NC(=O)[C@H](CO)NC(=O)[C@H](C)NC(=O)[C@H](CC(=O)O)NC(=O)[C@H](Cc1ccccc1)NC(=O)[C@H](CCC(=O)O)NC(=O)[C@H](CC(=O)O)NC(=O)[C@H](CO)NC(=O)[C@@H]1CCCN1C(=O)[C@H](Cc1ccccc1)NC(=O)[C@@H](NC(C)=O)C(C)C)[C@@H](C)CC)C(C)C)[C@@H](C)CC)C(=O)N[C@@H](CCCNC(=N)N)C(=O)N[C@@H](CCCCN)C(=O)N[C@@H](CO)C(=O)N[C@@H](CC(=O)O)C(=O)N[C@@H](CCC(=O)O)C(=O)N[C@@H](CC(C)C)C(=O)N[C@@H](CC(C)C)C(=O)N[C@@H](Cc1c[nH]cn1)C(=O)N[C@@H](CC(N)=O)C(=O)N[C@H](C(N)=O)C(C)C` [Peptide T112], the Kd [1] is reported as 2 nM and 1 nM, the “binding to the HR1 domain of RSV-F1 and protection from proteolytic digestion” value (HR1 domain of RSV-F1 [2]) is reported as “binds to the HR1 domain of RSV-F1 and thereby protects the domain from proteolytic digestion” and the “proteinase-K digestion of the peptide alone” value (HR1 domain of RSV-F1 [3]) is reported as “digest the peptide entiretly”. The “oligomerization state in solution (in words)” value [4] was “behaves as a monomer”, the Mw value ([4]; 50 μM, 25,000, 30,000 and 35,000 rpm) was 3,984 Da and the “binding to MBP fusion protein containing the HIV-1 gp41 ectodomain” value [5] was “does not bind”.
